Results as given in patent publication US20090170091A1, “Method For Predicting Biological Systems Responses” (priority 2006, published 2009).
Like-named read-outs stand apart in the source and are kept apart here.

How the values were obtained:
[1] = test system: HeLa cells; conditions: HeLa cells after camptothecin treatment; mRNA abundance; cited from earlier work
[2] = test system: HepG2 cells; assay: CellCipher cytotox profile, multiplexed HCS toxicity panel (11 cytotoxicity parameters, two plate assay); type: cell-based
Source text: This example pertains to a multiplexed toxicity HCS profiling panel. It describes the performance of a specific CellCipher™ cytotox profile which is designed to measure 11 cytotoxicity parameters using a two plate assay.
Assay and Reagent Specifications. […] The antibody and fluorescent indicators of cell physiology reagent specifications for Cytotox Profile Plate 1 are contained in Table 7 whereas the antibody and fluorescent indicators of cell physiology reagent specifications for Cytotox Profile Plate 2 are contained in Table 8. Finally, the assay buffer specifications for both Cytotox Profile Plates 1 and 2 are contained in Table 9.
HepG2 cell handling and plating procedure. HepG2 cells were obtained from the American Type Cell Collection (cat no. HB-8065) and an original seed stock was prepared from one vial containing 1×10^+6 cells. From the seed stock, a working stock was prepared using standard procedures. Cells were thawed form the working stock when required and maintained in culture for 20 passages before being discarded. […]
Cell plating for cytotox profile. For the cytotox profile, thin bottom 384-well microplates were used that are compatible with the high numerical aperture optics available on most HCS readers. […] Cells were passaged by trypsinization, including trituration, and viable cells counted. […]

## CC[C@@]1(O)C(=O)OCc2c1cc1n(c2=O)Cc2cc3ccccc3nc2-1 [camptothecin]
[1]
  Double strand DNA break repair genes, change: 4.0%
  Histone genes, change: 8.1%
  Mitosis related genes, change: 9.7%
  NF-κB inducible genes, change: 12.5%
  Nuclear compartment genes, change: 16.5%
  p53-inducible genes, change: 28.1%

## CC[C@H](C)C(=O)O[C@H]1C[C@@H](C)C=C2C=C[C@H](C)[C@H](CC[C@@H]3C[C@@H](O)CC(=O)O3)[C@H]21 [lovastatin]
[2]; HepG2 cells, 11 features at 30 min, 24 h and 72 h, FIG. 9 heat map clusters
  degree of activity (IC50 from KS dose-response fits) across the cytotox profile assays: moderate degree of activity (in the μM range) in many assays

## CC[C@H](C)C(=O)O[C@H]1CCC=C2C=C[C@H](C)[C@H](CC[C@@H]3C[C@@H](O)CC(=O)O3)[C@H]21 [mevastatin]
[2]
  degree of activity (IC50 from KS dose-response fits) across the cytotox profile assays: moderate degree of activity (in the μM range) in many assays
